ChEMBL document CHEMBL3430912, “GSK Tres Cantos Anti-Kinetoplastid Screening (TCAKS) Data”

What was measured:
Trypanosoma cruzi [1] = test: (§1) GSK_TCAKS: pIC50 Trypanosoma cruzi Imaging: Infected Cells. […] Cells were then washed once with PBS before infection. T. cruzi trypomastigotes, collected at days 5 to 8 after infection from LLC-MK2 parasite infected cultures, were allowed to swim out for 4h at 37C from a centrifuged pellet (2,500 rpm/10 min/room temperature). Trypomastigotes were then collected and counted in a CASY Cell Counter. Trypomastigotes, in supplemented DMEM, were added to H9c2 cultures in a multiplicity of infection of 1 and incubated for 18 h. Cells were washed once with PBS before incubation of the infected H9c2 monolayer with trypsin (Life-Technologies) to detach cells from the flask. Cells were counted in a CASY Cell Counter using a 150 um capillary and their density set at 5 * 10^4 cells per mL in supplemented assay DMEM. Infected H9c2 were dispensed into 384-well poly-lysine coated assay plates at 50uL per well using a Multidrop Combi dispenser. After seeding them, the plates were incubated at 37C, 5% CO2 for 72h. Cultures were then fixed and stained by addition of 50 uL of a solution containing 8% formaldehyde and 4 uM DRAQ5 DNA dye (BioStatus, UK) per well. […] Five images were collected per well for reliable statistical analysis. Automated image analysis was performed with a script developed on Acapella High Content Imaging and Analysis Software (PerkinElmer). Output: percentage of infected cells per well as a second infection marker.; assay type: functional, organism-based, Rattus norvegicus; conditions: H9c2, 4 h
[2] = GSK_TCAKS: pIC50 HepG2 human cell line viability assay using luminiscence. […] Seeding density was checked to ensure that new mono-layers were not more than 50% confluent at the time of harvesting. Cell suspension was added to 500 mL of the same medium at a final density of 1.2 * 10^5 cells/mL. This cell suspension was dispensed (25 uL, 3000 cells per well) into 384-well clear-bottom plates using a Multidrop Combi dispenser. Prior to addition of the cell suspension, the screening compounds (250 nL) were pre-dispensed into the plates with an Echo liquid handler. Plates were incubated for 48 h at 37C, 5% CO2. After incubation, plates equilibrated at room temperature for 30 min before proceeding to develop the luminescent signal. The signal developer, CellTiter-Glo Reagent, was allowed to equilibrate at room temperature for 30 min and added to the plates (25uL per well) using a Multidrop Combi dispenser. Plates were left for 10 min at room temperature for stabilization and then read using a ViewLux.; assay type: toxicity, cell-based
Trypanosoma cruzi [3] = test: GSK_TCAKS: pIC50 Trypanosoma cruzi viability assay using beta-GAL activity. This assay was run at single shot at 5uM compound concentration per well. The biological reagents consisted of NIH-3T3 host cells and trypomastigotes parasitic cells; both cell types were set to a 3.3 * 10^5 cells/mL dilution in assay DMEM by means of a CASY cell counter device using a 60um capillary. 6 uL of the mixture were dispensed per well (about 1 * 10^3 host-cells and 1 * 10^3 parasites) with a Multidrop Combi dispenser. […] In all wells, the percentage of DMSO never exceeded 0.5%. Plates incubated for four days at 37C, 5% CO2. The substrate used for the assay fluorescence intensity (FLINT) readout was resorufin-beta-D-galactopiranoside (Sigma-Aldrich) at 5uM per well. It was diluted in PBS supplemented with the soft detergent Igepal (Fluka).; assay type: functional, organism-based, Mus musculus; conditions: Tulahuen, NIH3T3
Leishmania donovani [4] = test: (§2) GSK_TCAKS: pIC50 Leishmania donovani Imaging: Amastigotes/Macrophages. Assay plates (384-well) were prepared by adding 250nL of compound to each well. For single shot assay, the final compound concentration was 5 uM. […] Automated image analysis was performed with a script developed on Acapella High Content Imaging and Analysis Software (PerkinElmer). Output: Average number of amastigotes per macrophage cell were reported for each well.; assay type: functional, organism-based, Homo sapiens; conditions: THP-1
[5] = molecular target: Sterol 14-alpha demethylase (Trypanosoma cruzi (strain CL Brener), UniProt Q7Z1V1); test: GSK_TCAKS: pIC50 CYP51 from Trypanosoma cruzi.; assay type: functional
[6] = tested on: Trypanosoma brucei brucei; test: GSK_TCAKS: pIC50 Trypanosoma brucei viability assay using fluorescence intensity. Assay plates (1536-well) were prepared by dispensing 25nL of compound solution per well using an Echo acoustic dispenser (Labcyte).; assay type: functional, organism-based; conditions: Lister 427, 2 h
Trypanosoma cruzi [7] = test: as §1, with “H2C9” for “Trypanosoma cruzi”, “H9c2 Host Cardiomyocytes.” for “Infected Cells.”, “Number” for “percentage”, “H9c2 Host Cardiomyocytes nuclei to determine drug-related cytotoxicity.” for “infected cells per well as a second infection marker.”; assay type: functional, organism-based, Rattus norvegicus; conditions: H9c2, 4 h
Trypanosoma cruzi [8] = test: GSK_TCAKS: pIC50 Trypanosoma cruzi Imaging: Amastigotes/Cell. […] Cells were then washed once with PBS before infection. T. cruzi trypomastigotes, collected at days 5 to 8 after infection from LLC-MK2 parasite infected cultures, were allowed to swim out for 4h at 37C from a centrifuged pellet (2,500 rpm/10 min/room temperature). Trypomastigotes were then collected and counted in a CASY Cell Counter. Trypomastigotes, in supplemented DMEM, were added to H9c2 cultures in a multiplicity of infection of 1 and incubated for 18 h. Cells were washed once with PBS before incubation of the infected H9c2 monolayer with trypsin (Life-Technologies) to detach cells from the flask. Cells were counted in a CASY Cell Counter using a 150 um capillary and their density set at 5 * 10^4 cells per mL in supplemented assay DMEM. Infected H9c2 were dispensed into 384-well poly-lysine coated assay plates at 50uL per well using a Multidrop Combi dispenser. After seeding them, the plates were incubated at 37C, 5% CO2 for 72h. Cultures were then fixed and stained by addition of 50 uL of a solution containing 8% formaldehyde and 4 uM DRAQ5 DNA dye (BioStatus, UK) per well. […] Five images were collected per well for reliable statistical analysis. Automated image analysis was performed with a script developed on Acapella High Content Imaging and Analysis Software (PerkinElmer). Output: number of amastigotes per cell as infection level measurement.; assay type: functional, organism-based, Rattus norvegicus; conditions: H9c2, 4 h
Leishmania donovani [9] = test: as §2, with “Infected Macrophages.” for “Amastigotes/Macrophages.”, “Percent” for “Average number”, “infected” for “amastigotes per”, “cells” for “cell”; assay type: functional, organism-based, Homo sapiens; conditions: THP-1
Leishmania donovani [10] = test: as §2, with “THP-1 Host Macrophages.” for “Amastigotes/Macrophages.”, “THP-1” for “Average number of amastigotes per macrophage”, “cell count” for “cell”; assay type: functional, organism-based, Homo sapiens
[11] = tested on: Trypanosoma brucei brucei; test: GSK_TCAKS: pIC50 Trypanosoma brucei viability assay using luminiscence. Assay plates (1536-well) were prepared. T. brucei cultures were harvested and counted in a CASY cell counter. A parasite suspension was prepared at a final concentration of 5 * 10^4 cells/mL in complete HMI9 medium and 6uL was dispensed to all wells containing compounds using a Multidrop Combi dispenser. 6uL of HMI9 media with 0.4% DMSO were dispensed to control columns. Plates were incubated for 24 h at 37C, 5% CO2 then tempered for 10 min at room temperature. ATP content was quantified by adding 4 uL of CellTiter-Glo Reagent (Promega) according to the manufacturer's instructions. Luminescence was measured using a ViewLux.; assay type: functional, organism-based; conditions: Lister 427, CASY
Leishmania donovani [12] = test: GSK_TCAKS: pIC50 Leishmania donovani viability assay using fluorescence intensity. Assay plates (1536-well) were prepared by adding 30nL per well of compound. For single shot assay, the final compound concentration was 5uM. […] Briefly, eGFP LdBOB axenic amastigotes were harvested, fixed and counted in a CASY cell counter (Roche-Applied Science). A final concentration of 1.5 * 10^5 cells per well were prepared in amastigote media containing 500 U/mL penicillin/streptomycin (Invitrogen) and 6uL was dispensed to each experimental well using a Multidrop Combi dispenser (Thermo Scientific). 6uL of assay media was dispensed to control columns used as reference for 100% compound response. Following incubation for 72 h at 37C, 5% CO2, 2 uL of resazurin was added to each well at a final concentration of 0.5 mM in phosphate buffered saline (PBS) with IGEPAL (Sigma-Aldrich), 0.05% (v/v).; assay type: functional, organism-based

Chain of Sterol 14-alpha demethylase (Q7Z1V1 whole entry): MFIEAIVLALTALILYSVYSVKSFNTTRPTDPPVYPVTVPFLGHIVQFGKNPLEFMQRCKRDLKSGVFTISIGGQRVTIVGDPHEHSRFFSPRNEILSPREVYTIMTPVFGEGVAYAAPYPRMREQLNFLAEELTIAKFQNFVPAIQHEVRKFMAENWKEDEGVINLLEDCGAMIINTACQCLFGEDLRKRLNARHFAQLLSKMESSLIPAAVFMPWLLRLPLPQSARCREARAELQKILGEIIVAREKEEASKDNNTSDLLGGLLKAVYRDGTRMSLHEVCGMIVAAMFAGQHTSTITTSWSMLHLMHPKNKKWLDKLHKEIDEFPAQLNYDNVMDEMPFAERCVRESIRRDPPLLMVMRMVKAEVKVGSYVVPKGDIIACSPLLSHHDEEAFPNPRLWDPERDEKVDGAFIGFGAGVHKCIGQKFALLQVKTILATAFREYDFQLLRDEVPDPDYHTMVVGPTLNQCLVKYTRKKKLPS

COc1ccc(-c2cnc(NC(=O)c3ccc(F)cc3)n2C)cc1
IC50 (Trypanosoma cruzi [1]): 5.01 µM | IC50 at 48 h [2]: > 100 µM | IC50 (Trypanosoma cruzi [3]): 2.51 µM | IC50 (Leishmania donovani [4]): 0.501 µM | IC50 [5]: 10 µM | IC50 [6]: 1.26 µM | IC50 (Trypanosoma cruzi [7]): > 50.1 µM | IC50 (Trypanosoma cruzi [8]): 2 µM | IC50 (Leishmania donovani [9]): 1.26 µM | IC50 (Leishmania donovani [10]): > 50.1 µM | IC50 [11]: 3.16 µM | IC50 (Leishmania donovani [12]): 3.16 µM

O=C(O)[C@H]1C[C@@H]1c1ccc(-c2ccc(CN(CCc3ccccn3)C(=O)C3CCC3)cc2)cc1
IC50 (Trypanosoma cruzi [1]): 31.6 µM | IC50 at 48 h [2]: > 100 µM | IC50 (Trypanosoma cruzi [3]): > 50.1 µM | IC50 (Leishmania donovani [4]): > 50.1 µM | IC50 [5]: 20 µM | IC50 [6]: 0.631 µM | IC50 (Trypanosoma cruzi [7]): > 50.1 µM | IC50 (Trypanosoma cruzi [8]): 31.6 µM | IC50 (Leishmania donovani [9]): > 50.1 µM | IC50 (Leishmania donovani [10]): > 50.1 µM | IC50 [11]: 0.794 µM | IC50 (Leishmania donovani [12]): 25.1 µM

CN(C)CCN(C)Cc1ccc(Cl)cc1NS(=O)(=O)c1ccc(Cl)c(Cl)c1
IC50 (Trypanosoma cruzi [1]): 2 µM | IC50 at 48 h [2]: 31.6 µM | IC50 (Trypanosoma cruzi [3]): 1.12 µM | IC50 (Leishmania donovani [4]): 3.98 µM | IC50 [5]: 31.6 µM | IC50 [6]: 7.94 µM | IC50 (Trypanosoma cruzi [7]): 5.01 µM | IC50 (Trypanosoma cruzi [8]): 2 µM | IC50 (Leishmania donovani [9]): 6.31 µM | IC50 (Leishmania donovani [10]): 31.6 µM | IC50 [11]: 3.98 µM | IC50 (Leishmania donovani [12]): 5.01 µM

O=C(Nc1nc2ccccc2[nH]1)c1c(O)c2cccc3c2n(c1=O)CC3
IC50 (Trypanosoma cruzi [1]): 15.8 µM | IC50 at 48 h [2]: 10 µM | IC50 (Trypanosoma cruzi [3]): 20 µM | IC50 (Leishmania donovani [4]): 1 µM | IC50 [5]: > 100 µM | IC50 [6]: 15.8 µM | IC50 (Trypanosoma cruzi [7]): 10 µM | IC50 (Trypanosoma cruzi [8]): 25.1 µM | IC50 (Leishmania donovani [9]): 2 µM | IC50 (Leishmania donovani [10]): > 50.1 µM | IC50 [11]: 20 µM | IC50 (Leishmania donovani [12]): 2.51 µM

N#Cc1ccc(C(=O)Nc2cccc(-c3cccc(CN4CCC(O)CC4)c3)c2)cc1
IC50 (Trypanosoma cruzi [1]): 7.94 µM | IC50 at 48 h [2]: 39.8 µM | IC50 (Trypanosoma cruzi [3]): 5.01 µM | IC50 (Leishmania donovani [4]): 7.94 µM | IC50 [5]: 25.1 µM | IC50 [6]: 0.794 µM | IC50 (Trypanosoma cruzi [7]): 31.6 µM | IC50 (Trypanosoma cruzi [8]): 7.94 µM | IC50 (Leishmania donovani [9]): 15.8 µM | IC50 (Leishmania donovani [10]): 15.8 µM | IC50 [11]: 0.794 µM | IC50 (Leishmania donovani [12]): > 50.1 µM

O=C(Nc1nc(-c2ccccn2)cs1)N1C[C@H]2C[C@@]2(c2ccccc2)C1
IC50 (Trypanosoma cruzi [1]): 0.501 µM | IC50 at 48 h [2]: 25.1 µM | IC50 (Trypanosoma cruzi [3]): 0.501 µM | IC50 (Leishmania donovani [4]): 0.398 µM | IC50 [5]: 39.8 µM | IC50 [6]: 0.501 µM | IC50 (Trypanosoma cruzi [7]): 0.794 µM | IC50 (Trypanosoma cruzi [8]): 0.251 µM | IC50 (Leishmania donovani [9]): 0.501 µM | IC50 (Leishmania donovani [10]): 7.94 µM | IC50 [11]: 0.631 µM | IC50 (Leishmania donovani [12]): 2 µM

CN(C)S(=O)(=O)c1cccc(C(=O)Nc2nc(-c3ccccn3)cs2)c1
IC50 (Trypanosoma cruzi [1]): 1.58 µM | IC50 at 48 h [2]: > 100 µM | IC50 (Trypanosoma cruzi [3]): 1.26 µM | IC50 (Leishmania donovani [4]): 2.51 µM | IC50 [5]: 31.6 µM | IC50 [6]: 0.501 µM | IC50 (Trypanosoma cruzi [7]): 7.94 µM | IC50 (Trypanosoma cruzi [8]): 1 µM | IC50 (Leishmania donovani [9]): 6.31 µM | IC50 (Leishmania donovani [10]): 7.94 µM | IC50 [11]: 0.631 µM | IC50 (Leishmania donovani [12]): 1.26 µM

O=C(CCCNC(=O)c1ccc(Cl)cc1)Nc1nc(-c2ccccn2)cs1
IC50 (Trypanosoma cruzi [1]): 25.1 µM | IC50 at 48 h [2]: > 100 µM | IC50 (Trypanosoma cruzi [3]): 6.31 µM | IC50 (Leishmania donovani [4]): 3.16 µM | IC50 [5]: 3.16 µM | IC50 [6]: 7.94 µM | IC50 (Trypanosoma cruzi [7]): 25.1 µM | IC50 (Trypanosoma cruzi [8]): 10 µM | IC50 (Leishmania donovani [9]): 5.01 µM | IC50 (Leishmania donovani [10]): > 50.1 µM | IC50 [11]: 12.6 µM | IC50 (Leishmania donovani [12]): > 50.1 µM

CCCNC(=O)Nc1cccc(-c2nc3ncccc3o2)c1
IC50 (Trypanosoma cruzi [1]): 3.98 µM | IC50 at 48 h [2]: > 100 µM | IC50 (Trypanosoma cruzi [3]): 2.82 µM | IC50 (Leishmania donovani [4]): 15.8 µM | IC50 [5]: > 100 µM | IC50 [6]: 0.501 µM | IC50 (Trypanosoma cruzi [7]): 25.1 µM | IC50 (Trypanosoma cruzi [8]): 3.16 µM | IC50 (Leishmania donovani [9]): 12.6 µM | IC50 (Leishmania donovani [10]): 20 µM | IC50 [11]: 1 µM | IC50 (Leishmania donovani [12]): 3.16 µM
